Test results taken from patent publication US20240246042A1, “METHOD FOR EMULSIFICATION USING IONIC FLUX” (Purdue Research Foundation, priority 2023, published 2024).
Like-named read-outs stand apart in the source and are kept apart here.

Legend:
[1] = Gibbs free energy of ion transfer and ion transfer potentials across the water and DCE phase; assay type: physicochemical
Source text: The Gibbs free energy of ion transfer and the ion transfer potentials for relevant ions across the water and DCE phase were studied.

[2] = transfer from water to DCE; cited from earlier work
[3] = assay type: physicochemical; details: aqueous phase None; cathode in aqueous, anode in DCE (per FIG. 23C, 24D-F); 5 mA, 5 min
Procedure: E) The cathode was placed in an aqueous phase containing no phase-transfer agent, and the anode was placed in DCE containing 0.1 M [NBu4][Br]. F) The cathode was placed in an aqueous phase containing no phase-transfer agent, and the anode was placed in DCE containing 0.1 M [NHx][ClO4].
All experiments were performed using bi-phasic systems consisting of immiscible solutions, such as 1,2-dichloroethane and water. Before experimentation, a platinum wire (r=1 mm) was sealed within a cell while maintaining an electrical connection. […] A secondary platinum wire (r=1 mm) was then submerged into the aqueous top layer to complete the circuit and allow for current to flow. Upon submersion, a current was then applied across the system using DC power supply. Current was maintained at 5 mA for a total duration of 5 min. Solutions were allowed to rest for an additional 5 minutes before additional experimentation or measurement.
The droplet sizes were measured. In these measurements, the resulting top layer and bottom layer from the prior section were allowed to rest for 5 minutes and were then transferred to a 1 cm glass cuvette. After transfer, the cuvette was inserted into the DLS instrumentation and was allowed to perform dynamic light scatter measurements to determine the size and intensity of the droplets formed during electro-emulsification. […]

Row | Structure (SMILES) | Δφw→DCE^0 (standard ion transfer potential) ([1]; transfer from water to DCE) [mV] | ΔGw→DCE^0 (standard Gibbs free energy of ion transfer) [2] [kcal/mol] | Δφw→DCE^0 (standard ion transfer potential) [1] [mV] | Average Size (d · nm) N = 3 [3] [nm] | Zeta Potential [3] [mV]
1 | Br [Br^−] | −399 | 9.2 | – | – | –
2 | [O-][Cl+3]([O-])([O-])O [ClO4^−] | −178 | 4.11 | – | – | –
3 | Cl [Cl^−] | −481 | 11.1 | – | – | –
4 | [H+] [H^+] | −627 | 14.5 | – | – | –
5 | [K+] [K^+] | −548 | 12.6 | – | – | –
6 | CCCC[N+](CCCC)(CCCC)CCCC [NBu4^+, tetrabutylammonium] | 226 | – | – | – | –
7 | CC[N+](CC)(CC)CC [NEt4^+, tetraethylammonium] | – | – | −44 | – | –
8 | [Na+] [Na^+] | −610 | 14.1 | – | – | –
9 | F[P-](F)(F)(F)(F)F [PF6^−] | −90 | 2.08 | – | – | –
10 | CCCCCC[N+](CCCCCC)(CCCCCC)CCCCCC.[O-][Cl+3]([O-])([O-])[O-] [[NHx4][ClO4], tetrahexylammonium perchlorate] | – | – | – | 3477 | −6.031
